Data set [1] is described as follows: Half life in C57BL/6 mouse plasma at 50 mg/kg,po and measured upto 24 hrs by LC-MS/MS analysis. It counts as ADME, organism-based.
The nature of data set [2]: Apparent permeability across apical to basolateral side in dog MDCK-MDR1 cells at 5 uM incubated for 60 mins by LC-MS/MS analysis. The format is ADME, cell-based, Canis lupus familiaris.
A short description of data set [3]: Solubility in simulated gastric fluid at pH 1.2 at 30 uM incubated for 90 mins by HPLC-UV analysis. The format is ADME.
Data set [4] can be described thus: Dissociation constant, pKa of the compound at 10 mM incubated for 16 hrs with shaking by HPLC-UV analysis. It counts as physicochemical.
The nature of data set [5]: Cmax in C57BL/6 mouse plasma at 50 mg/kg,po and measured upto 24 hrs by LC-MS/MS analysis. Also noted: dose 50 mg/kg, time < 24 hrs, route po. The format is ADME, organism-based.
Data set [6] can be described thus: Solubility of compound in PBS at pH 7.4 at 30 uM incubated for 90 mins by HPLC-UV analysis. The format is physicochemical.
Data set [7] can be described thus: Octanol/water partition coefficient, logD of the compound at pH 7.4 at 10 mM incubated for 16 hrs with shaking by HPLC-UV analysis. The format is physicochemical.
The nature of data set [8]: AUC (0-6 hrs) in C57BL/6 mouse plasma at 50 mg/kg,po and measured upto 24 hrs by LC-MS/MS analysis. It counts as ADME, organism-based. Also noted: dose 50 mg/kg, time < 24 hrs, route po.
Data set [9] in a line: Oral bioavailability in C57BL/6 mouse plasma at 50 mg/kg and measured upto 24 hrs by LC-MS/MS analysis. The format is ADME, organism-based.
Data set [10] is described as follows: Tmax in C57BL/6 mouse plasma at 50 mg/kg,po and measured upto 24 hrs by LC-MS/MS analysis. It counts as ADME, organism-based.
A short description of data set [11]: Solubility in simulated intestinal fluid at pH 6.8 at 30 uM incubated for 90 mins by HPLC-UV analysis. The format is ADME.
Data set [12] can be described thus: AUC (0-infinity) in C57BL/6 mouse at 61 mg/kg, po and measured upto 24 hrs by LC-MS/MS analysis. The format is ADME, organism-based. Also noted: dose 61 mg/kg, time < 24 hrs, route po. Particulars: in vivo.
Data set [13] can be described thus: Cmax in C57BL/6 mouse at 61 mg/kg, po and measured upto 24 hrs by LC-MS/MS analysis. It counts as ADME, organism-based. The arrangement: dose 61 mg/kg, time < 24 hrs, route po. Particulars: in vivo.
Data set [14] in a line: Solubility of compound in PBS at pH 9.0 at 30 uM incubated for 90 mins by HPLC-UV analysis. The format is physicochemical.
Data set [15] is described as follows: Terminal half life in C57BL/6 mouse at 61 mg/kg, po and measured upto 24 hrs by LC-MS/MS analysis. The format is ADME, organism-based. Particulars: in vivo, read-out: beta t1/2 (converted).
Data set [16] can be described thus: Solubility in simulated gastric fluid at pH 1.2 at 30 uM incubated for 90 mins in presence of 0.5% SDS by HPLC-UV analysis. It counts as ADME.
Data set [17] can be described thus: AUC (0-t) in C57BL/6 mouse at 61 mg/kg, po and measured for 4 to 10 hrs by LC-MS/MS analysis. It counts as ADME, organism-based. The arrangement: time lower 4 hrs, dose 61 mg/kg, time upper 10 hrs, route po. Particulars: in vivo.
Data set [18] can be described thus: Solubility in simulated intestinal fluid at pH 6.8 at 30 uM incubated for 90 mins in presence of 0.5% SDS by HPLC-UV analysis. The format is ADME.
Data set [19] deals with Epidermal growth factor receptor (Homo sapiens, UniProt P00533). In words: Inhibition of human EGFR.
A short description of data set [20]: AUC (0-infinity) in C57BL/6 mouse at 80 mg/kg, po and measured upto 24 hrs by LC-MS/MS analysis. Particulars: in vivo. The format is ADME, organism-based. Also noted: time < 24 hrs, dose 80 mg/kg, route po.
Data set [21] is described as follows: Cmax in C57BL/6 mouse at 80 mg/kg, po and measured upto 24 hrs by LC-MS/MS analysis. The format is ADME, organism-based. Also noted: time < 24 hrs, dose 80 mg/kg, route po. Particulars: in vivo.
A short description of data set [22]: AUC (0-t) in C57BL/6 mouse at 80 mg/kg, po and measured for 4 to 10 hrs by LC-MS/MS analysis. The format is ADME, organism-based. The arrangement: time upper 10 hrs, dose 80 mg/kg, time lower 4 hrs, route po. Particulars: in vivo.
A short description of data set [23]: Apparent permeability of compound at 20 mM and measured after 16 hrs by PAMPA assay. The format is ADME. (In general: The PAMPA barrier holds no transporters, so it reflects passive diffusion.)
The nature of data set [24]: Terminal half life in C57BL/6 mouse at 80 mg/kg, po and measured upto 24 hrs by LC-MS/MS analysis. The format is ADME, organism-based. Particulars: in vivo, read-out: beta t1/2 (converted).
Data set [25] can be described thus: Prodrug conversion in C57BL/6 mouse plasma assessed as Tmax of (S)-2-(2-chloro-6-methylbenzamido)-3-(4-(1,3,6-trimethyl-2,4-dioxo-1,2,3,4-tetrahydropyrimidin-5-yl)phenyl)propanoic acid metabolite at 63.5 mg/kg,po and measured upto 24 hrs by LC-MS/MS analysis. The format is ADME, organism-based. Particulars: in vivo.
A short description of data set [26]: Prodrug conversion in C57BL/6 mouse plasma assessed as half life of (S)-2-(2-chloro-6-methylbenzamido)-3-(4-(1,3,6-trimethyl-2,4-dioxo-1,2,3,4-tetrahydropyrimidin-5-yl)phenyl)propanoic acid metabolite at 63.5 mg/kg,po and measured upto 24 hrs by LC-MS/MS analysis. It counts as ADME, organism-based. Particulars: in vivo.
Data set [27] can be described thus: Prodrug conversion in C57BL/6 mouse plasma assessed as (S)-2-(2-chloro-6-methylbenzamido)-3-(4-(1,3,6-trimethyl-2,4-dioxo-1,2,3,4-tetrahydropyrimidin-5-yl)phenyl)propanoic acid metabolite level at 100 mg/kg, po and measured after 6 hrs LC-MS/MS analysis. Particulars: in vivo. The format is ADME, organism-based.
A short description of data set [28]: Prodrug conversion in C57BL/6 mouse plasma assessed as AUC (0 to 6 hrs) of (S)-2-(2-chloro-6-methylbenzamido)-3-(4-(1,3,6-trimethyl-2,4-dioxo-1,2,3,4-tetrahydropyrimidin-5-yl)phenyl)propanoic acid metabolite at 63.5 mg/kg,po and measured upto 24 hrs by LC-MS/MS analysis. The format is ADME, organism-based. Particulars: in vivo. Also noted: time < 24 hrs, dose 63.5 mg/kg, route po.

The nature of data set [29]: Prodrug conversion in C57BL/6 mouse plasma assessed as(S)-2-(2-chloro-6-methylbenzamido)-3-(4-(1,3,6-trimethyl-2,4-dioxo-1,2,3,4-tetrahydropyrimidin-5-yl)phenyl)propanoic acid metabolite level at 100 mg/kg, po and measured after 3 hrs LC-MS/MS analysis. Particulars: in vivo. It counts as ADME, organism-based.
Data set [30] is described as follows: Prodrug conversion in C57BL/6 mouse plasma assessed as Cmax of (S)-2-(2-chloro-6-methylbenzamido)-3-(4-(1,3,6-trimethyl-2,4-dioxo-1,2,3,4-tetrahydropyrimidin-5-yl)phenyl)propanoic acid metabolite at 63.5 mg/kg,po and measured upto 24 hrs by LC-MS/MS analysis. It counts as ADME, organism-based. The arrangement: dose 63.5 mg/kg, time < 24 hrs, route po. Particulars: in vivo.

Data set [31] in a line: Prodrug conversion in C57BL/6 mouse colon assessed as (S)-2-(2-chloro-6-methylbenzamido)-3-(4-(1,3,6-trimethyl-2,4-dioxo-1,2,3,4-tetrahydropyrimidin-5-yl)phenyl)propanoic acid metabolite level at 100 mg/kg, po and measured after 6 hrs LC-MS/MS analysis. It counts as ADME, organism-based. Particulars: in vivo.
Data set [32] is described as follows: Oral bioavailability in C57BL/6 mouse plasma at 63.5 mg/kg and measured upto 24 hrs by LC-MS/MS analysis. It counts as ADME, organism-based.
A short description of data set [33]: Prodrug conversion in C57BL/6 mouse colon assessed as (S)-2-(2-chloro-6-methylbenzamido)-3-(4-(1,3,6-trimethyl-2,4-dioxo-1,2,3,4-tetrahydropyrimidin-5-yl)phenyl)propanoic acid metabolite level at 100 mg/kg, po and measured after 3 hrs LC-MS/MS analysis. It counts as ADME, organism-based. Particulars: in vivo.

Values after ≈ are worked out from the molar mass of the structure shown.

Broadly, the Papp A→B is the apparent permeability from the apical to the basolateral side of a cell layer. The solubility is the dissolved amount per volume that the medium holds. The term pKa denotes the pH at which an ionisable group is half protonated. A low value points to a stronger acid or weaker base. What is called Cmax is the maximum level reached in the sampled fluid or tissue. Broadly, the logD is lipophilicity at a set pH, counting ionised and neutral species. By AUC(0-t) is commonly meant the area under the concentration-time curve up to a stated or last time point. Low values mean low exposure, high ones high exposure. As usually defined, the bioavailability is dose-corrected exposure relative to a reference, in per cent. A higher bioavailability goes with much systemic uptake. Broadly, the Tmax is the time from dosing to the highest level. For orientation: AUC(0-inf) means the area under the concentration-time curve extrapolated to infinity. High values mean high exposure, low ones low exposure. As a reminder, the IC50 is the midpoint of a concentration-inhibition curve. A low value points to greater potency in that assay. In general, Papp refers to a coefficient for how fast a substance crosses the barrier. One may read the AUC as the area under the concentration-time curve, a measure of exposure.

Sequence of Epidermal growth factor receptor (P00533 whole entry): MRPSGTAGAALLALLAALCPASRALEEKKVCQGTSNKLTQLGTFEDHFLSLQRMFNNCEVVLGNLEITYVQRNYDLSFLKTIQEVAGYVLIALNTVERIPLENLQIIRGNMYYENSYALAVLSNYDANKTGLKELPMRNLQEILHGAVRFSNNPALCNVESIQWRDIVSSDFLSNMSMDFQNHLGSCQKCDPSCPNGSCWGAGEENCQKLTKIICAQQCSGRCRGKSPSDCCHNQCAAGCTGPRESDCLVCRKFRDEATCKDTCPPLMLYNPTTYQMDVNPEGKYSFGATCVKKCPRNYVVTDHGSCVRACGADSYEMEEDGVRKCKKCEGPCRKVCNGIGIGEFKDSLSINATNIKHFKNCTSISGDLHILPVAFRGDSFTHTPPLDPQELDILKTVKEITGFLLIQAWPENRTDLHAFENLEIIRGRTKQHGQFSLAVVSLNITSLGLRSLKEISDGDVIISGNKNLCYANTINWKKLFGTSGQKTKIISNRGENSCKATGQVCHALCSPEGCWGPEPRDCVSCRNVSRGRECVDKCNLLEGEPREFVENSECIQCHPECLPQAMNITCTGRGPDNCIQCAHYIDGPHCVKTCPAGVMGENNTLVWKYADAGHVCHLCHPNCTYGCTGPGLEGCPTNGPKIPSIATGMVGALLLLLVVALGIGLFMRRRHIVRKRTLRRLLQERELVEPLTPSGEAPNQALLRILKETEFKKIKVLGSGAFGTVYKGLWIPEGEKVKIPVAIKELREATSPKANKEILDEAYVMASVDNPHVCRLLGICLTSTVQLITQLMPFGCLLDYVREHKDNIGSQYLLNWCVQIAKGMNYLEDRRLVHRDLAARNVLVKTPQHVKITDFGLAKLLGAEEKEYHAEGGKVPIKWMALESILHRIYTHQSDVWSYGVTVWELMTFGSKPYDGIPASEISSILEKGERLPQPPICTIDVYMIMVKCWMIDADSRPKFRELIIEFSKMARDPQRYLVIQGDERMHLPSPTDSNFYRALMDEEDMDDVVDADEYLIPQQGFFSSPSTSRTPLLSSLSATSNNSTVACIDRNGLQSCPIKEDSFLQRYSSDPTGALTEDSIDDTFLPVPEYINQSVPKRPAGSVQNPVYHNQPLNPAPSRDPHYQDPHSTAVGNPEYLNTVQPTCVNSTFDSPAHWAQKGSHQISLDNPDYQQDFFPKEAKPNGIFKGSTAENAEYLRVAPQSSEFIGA

As to `Cc1cccc(Cl)c1C(=O)N[C@@H](Cc1ccc(-c2c(C)n(C)c(=O)n(C)c2=O)cc1)C(=O)O`, the half-life in [1] is 0.67 h. Moreover, in data set [2], the apical-to-basolateral permeability (Papp A→B) at 1 h, 5 µM amounted to 1.3 ×10⁻⁶ cm/s. The solubility at 1.5 h, 30 µM was 94.7 µg/mL (≈ 202 µM) in data set [3], 95.4 µg/mL (≈ 203 µM) in data set [6] and 91.9 µg/mL (≈ 196 µM) in [11]. In data set [4], this compound returned a pKa at 16 h, 10000 µM of 3.4. The same compound gave a peak concentration (Cmax) in data set [5] of 425 ng/mL. In addition, the logD at 16 h, 10000 µM in data set [7] was -1.1. The compound also showed an AUC(0-t) at 24 h in data set [8] of 616 ng·h/mL. Also, the bioavailability in data set [9] is less than 1%. Besides, in data set [10], the time to peak (Tmax) amounted to 1 h.

On to `COc1cc2ncnc(Nc3ccc(F)c(Cl)c3)c2cc1OC`, for which, in [12], the AUC(0-inf) is 26300 ng·h/mL. Further, in data set [13], the concentration peaked (Cmax) at 7440 ng/mL. Further, the solubility at 1.5 h, 30 µM was 1.53 µg/mL (≈ 4.58 µM) in data set [14]; 49.4 µg/mL (≈ 148 µM) in data set [3]; 23.6 µg/mL in data set [16]; 1.3 µg/mL (≈ 3.9 µM) in data set [6]; 63.9 µg/mL in data set [18]; 51.7 µg/mL (≈ 155 µM) in data set [11]. For the same compound, the half-life in [15] was 1.9 h. This compound displayed a pKa at 16 h, 10000 µM in data set [4] of 4.51. For the same compound, the area under the curve AUC(0-t) in [17] was found to be 25500 ng·h/mL.

On to `COc1cc2ncnc(Nc3ccc(O[C@H]4CO[C@H]5[C@@H]4OC[C@@H]5O)c(Cl)c3)c2cc1OC`, for which the solubility at 1.5 h, 30 µM in data set [14] was 45.4 µg/mL (≈ 98.7 µM); in [3], 87.9 µg/mL (≈ 191 µM); in data set [16] it was 56 µg/mL; in data set [6], 19.8 µg/mL (≈ 43.1 µM); in data set [18], 80.8 µg/mL; in [11], 65.4 µg/mL (≈ 142 µM). Further, the IC50 in data set [19] came to 5.3 nM. For the same compound, in data set [20], the AUC(0-inf) stood at 44500 ng·h/mL. The highest level in data set [21] (Cmax) was 30100 ng/mL. The half-life in data set [15] and in data set [24] was 1.19 h each time. The AUC(0-t) in data set [22] is 44500 ng·h/mL. Also, in data set [23], the apparent permeability (Papp) at 16 h, 20000 µM came to 7.45 ×10⁻⁶ cm/s. This compound registered a pKa at 16 h, 10000 µM in [4] of 5.

As to `Cc1cccc(Cl)c1C(=O)N[C@@H](Cc1ccc(-c2c(C)n(C)c(=O)n(C)c2=O)cc1)C(=O)O[C@H]1CO[C@H]2[C@@H]1OC[C@@H]2O`, the Papp A→B at 1 h, 5 µM in data set [2] worked out at 2.5 ×10⁻⁶ cm/s. The solubility at 1.5 h, 30 µM in data set [3] is 126 µg/mL (≈ 210 µM); in data set [6], 107 µg/mL (≈ 179 µM); in data set [11] it was 99.6 µg/mL (≈ 167 µM). In [25], the Tmax amounted to 0.25 h. In addition, in data set [26], the t1/2 came out at 1.63 h. The Drug metabolism in data set [27] turned out to be 200 ng/mL; in [29], 500 ng/mL; in [31] it was 100000 ng/g; in data set [33], 200000 ng/g. Further, in [28], the AUC was determined as 2100 ng·h/mL. In addition, the Cmax in data set [30] was 3193 ng/mL. Moreover, in data set [23], the Papp at 16 h, 20000 µM stood at 1.68 ×10⁻⁶ cm/s. The same compound came in with a pKa at 16 h, 10000 µM in data set [4] of 7.9. The pH-dependent lipophilicity (logD) at 16 h, 10000 µM in data set [7] was 1.2. The same compound gave a bioavailability in data set [32] of 12%.

These data come from ChEMBL document CHEMBL5223181, “Incorporation of an Isohexide Subunit Improves the Drug-like Properties of Bioactive Compounds” (ACS Med Chem Lett, 2023).
